Laboratory results published in patent US9616125B2, “Stable nocathiacin lyophilized injection agent” (priority 2013, dated 2017).

Legend:
[1] = system: methicillin-resistant staphylococcus aureus (MRSA); details: cited from earlier work
[2] = system: vancomycin-resistant enterococcus (VRE); details: cited from earlier work
[3] = system: penicillin-resistant streptococcus pneumoniae (PRSP); details: cited from earlier work
[4] = system: mycobacterium tuberculosis; details: cited from earlier work
[5] = Aqueous solubility of nocathiacin I versus pH (shake 24 h, filtration, HPLC)
Description: Excessive purified material of nocathiacin I is added in test tubes with stopper respectively, and a certain amounts of buffer solutions with pH 2, pH 3, pH 4, pH 5, pH 6 and pH 7 are added to ensure that the solutions are in a supersaturated state all the time, and the solutions are shaken for 24 h under room temperature. Then the solutions are filtered through a 0.22 millipore filter, and the subsequent filtrate is taken and fed in a high performance liquid chromatography to measure the drug contents. The chromatogram conditions are as follows. • Chromatographic column: Waters Symmetry, 150 mm×4.6 mm, 5 μm.
Mobile phase: A. distilled water containing 0.05% TFA; and B. acetonitrile containing 0.05% TFA.
Gradient: Gradient elution for 32 min, 30%-60% B.
Column temperature: 40° C., and rate of flow: 1 ml/min
Detection wavelength: 362 nm, and sample volume: 10 μl.

In the case of nocathiacin, the effective concentration [1] is listed as “less than 1 μg/ml”, the effective concentration [2] is listed as “less than 1 μg/ml” and the effective concentration [3] is listed as “less than 1 μg/ml”. The effective concentration [4] was “less than 1 μg/ml”.
With `C=C(NC(=O)c1csc(-c2nc3c(cc2O)-c2nc(cs2)C(=O)N[C@@H]([C@@H](C)O)C(=O)N/C(=C(\C)OC)c2nc(cs2)C(=O)N[C@@H]2c4nc(cs4)C(=O)N[C@@H](COC(=O)c4c5c6c(cccc6n4O)COC(=O)[C@@H](O[C@H]4C[C@](C)(O)[C@H](N(C)C)[C@H](C)O4)[C@H]2OC5)c2nc-3cs2)n1)C(N)=O.O=C(O)C(F)(F)F` [nocathiacin I] the “concentration of nocathiacin I solution that can be obtained” value ([5]; pH value of the liquid formulation controlled below 6) was “more than 0.5 mg/mL” and the “solubility of nocathiacin I as a function of pH” value ([5]; within a scope of pH 1-7, FIG. 1) was “decreases with the increase of pH value”.
